Results taken from patent US8471036B2, “Rhodacyanine derivative and pharmaceutical composition for treating leishmaniasis” (FUJIFILM Corporation, priority 2009, dated 2013).
“Also recorded” adds a separate entry of the source. Structures can show the parent of a compound that is named as a salt. Where two headings read alike, the source gives them in different places.

Experiments:
[1] = tested on: Peritoneal macrophages from NMRI mice; test: Toxic effect on macrophages in the macrophage test; type: cell-based; conditions: murine peritoneal macrophages in the macrophage test
Method: Peritoneal macrophages from NMRI mice are collected 1 day after stimulation of macrophage production with an intraperitoneal injection of 2 mL of a 2% potato starch suspension. The present test was conducted at 37° C. under an atmosphere having a CO2 concentration of 5%. Each of the compounds to be used in the test was dissolved in DMSO to give a test solution having a predetermined concentration.
100 μL of a murine macrophage suspension (4×10^5/mL) in a RPMI 1640 medium containing bicarbonate and N-2-hydroxyethylpiperazine-N′-2-ethanesulfonic acid (HEPES) and supplemented with 10% heat-inactivated fetal bovine serum (RPMI/FBS medium) was added to wells of 96-well culture plates. After 24 hours, 100 μL of a suspension containing amastigotes (1.2×10^6/mL) was further added to each well, giving a suspension having a amastigotes/macrophages ratio of 3/1. The amastigotes were prepared in the same manner as above, and suspended in the RPMI/FBS medium. After 24 hours, the medium containing free amastigotes was removed, the cells were washed once with medium, and fresh media containing the test compound at serial dilutions (four 3-fold dilutions for each compound) were added to the wells. The growth of the protozoa in samples treated with the test-compound-containing media was compared with that of the control. Specifically, after 4 days of incubation, the samples were fixed with methanol, and thereafter stained with a 10% Giemsa solution. The IC50 values were determined based on the number of infected macrophages.
It is unexpected and surprising finding that such a harsh toxic effect against macrophages is reduced by introduction of a halogen atom, particularly a fluorine atom, according to the invention, and anti-leishmania activity is manifested.

[2] = tested on: Leishmania donovani (L. Don, MHOM/ET/67/L82 strain); test: Leishmania protozoa proliferation inhibition test (amastigotes, Alamar Blue); type: cell-based; conditions: for Selective Toxicity Coefficient: (IC50 against rat L6 cells)/(IC50 against leishmania protozoa)
Method: In this test, Leishmania donovani (L. Don, MHOM/ET/67/L82 strain) was used. The protozoa were maintained in the Syrian Golden hamster, and amastigotes were collected from the spleen of an infected hamster. A SM medium supplemented with 10% heat-inactivated fetal bovine serum was used in the experiment, and the pH was adjusted to 5.4. The protozoa were grown at 37° C. under an atmosphere having a CO2 concentration of 5%. The activity with respect to inhibition of the proliferation of leishmania protozoa was studied for Compounds A, C, and D according to the invention for test, and for MKT-077, Compound X, and miltefosine (positive compound, existing drug) as comparative compounds. The structures of the compounds are as shown below. Each compound was dissolved in DMSO to give a test solution having a predetermined concentration. Each of the compounds to be used in the test was dissolved in DMSO to give a test solution having a concentration of 10 mg/mL. Assays were performed in 96-well culture plates, with each well containing 100 μL of the culture medium containing 10^5 amastigotes with or without the test compound at a predetermined serial dilution. The test was conducted twice. […] Each culture plate was mounted on a microplate fluorometer, and irradiated with light at an excitation wavelength of 536 nm. The intensity of fluorescence at 588 nm was measured, and the residual ratios of leishmania protozoa in the group added with the test solution and in the control were calculated. […] The selective toxicity coefficient, which is used as an index of the selectivity against leishmania protozoa, was calculated according to the following equation, and the drug efficacy was evaluated. Selective toxicity coefficient=(IC50 value of the test compound against rat L6 cells)/(IC50 value of the test compound against leishmania protozoa)

[3] = tested on: L. donovani (strain MHOM/ET/67/HU3); test: Anti-leishmania activity test using mice infected with leishmania; type: in vivo, Female BALB/c mice; conditions: amastigotes per 500 liver cells
Method: Compound A was used as the test compound in this test. Further, a pentostam-sensitive L. donovani (strain MHOM/ET/67/HU3) was used in this test, and the protozoa were maintained in Syrian Golden hamsters, and amastigotes were isolated from spleen cells of the infected hamster. Then, an inoculum containing 7.5×10^7 amastigotes/mL in RPMI 1640 was prepared. Female BALB/c mice (20 g) were infected with the amastigotes by intravenous injection at the tail vein on day 0. On day 7 after infection, one mouse was sacrificed, liver smears were methanol-fixed and Giemsa-stained, thereby confirming infection. The test compound was dissolved in an aqueous solution containing 10% ethanol and 5% glucose, and administered to the mice once a day for 5 days from day 7 to day 11. 3 days after the completion of the administration of the drug, livers were removed and weighed, and smears were methanol-fixed and then Giemsa-stained. The number of amastigotes (average value) per 500 liver cells was determined by counting, and the infection inhibition rate was determined based on the comparison thereof with mice that had not been treated with the drug. Infection inhibition rate (%)=[1−(b−a)/(c−a)]×100 a: Initial infection rate b: Infection rate in the mice treated with the test solution c: Infection rate in the control mice

[4] = tested on: Rat-derived L6 cells (rat skeletal myoblast cells); test: Rat L6 cell proliferation inhibition test; type: cell-based
Method: Rat-derived L6 cells (rat skeletal myoblast cells) were used. The cells were cultured at 37° C. at a CO2 concentration of 5%, using, as a culture medium, a RPMI 1640 medium supplemented with 1% L-glutamine (200 mM) and 10% fetal bovine serum (FBS).
Each of the compounds to be tested was dissolved in DMSO to give a test solution having a concentration of 10 mg/mL.
96-well culture plates of which each well contained 4×10^4 cells in 100 μL of the culture medium were prepared. After 24 hours, a 3-fold dilution series was prepared according to an ordinary method by adding a medium containing the compound to be tested, and the test was conducted.
After incubating the culture plates for 72 hours in an incubator, the plates were inspected with respect to proliferation activity. The inspection was conducted as follows. 10 μL of the Alamar Blue aqueous solution as described above was added to each well, and the plates were incubated for another 2 hours. Then, the culture plates were mounted on a microplate fluorometer, and irradiated with light at an excitation wavelength of 536 nm. The intensity of fluorescence at 588 nm was measured, and the residual ratios of L6 cells in the group added with the test solution and in the control were calculated.
The 50% proliferation inhibitory concentration (IC50) values were determined based on the residual ratios of cells obtained above, and the results are shown in Table 1. In Table 1, “ND” represents that the test was not conducted.

[5] = tested on: leishmania protozoa in macrophages (L. Don); test: Leishmania protozoa proliferation inhibition test in macrophages; type: cell-based, Leishmania donovani; conditions: amastigotes in murine peritoneal macrophages, 4 days incubation, number of infected macrophages
Method: The inhibitory activity on the proliferation of leishmania protozoa in macrophages was examined for Compounds A and B according to the invention and comparative compounds MKT-077, Compound X, Compound Y, Compound Z, and miltefosine (positive compound, existing drug). The structures of the compounds are as shown below. Peritoneal macrophages from NMRI mice are collected 1 day after stimulation of macrophage production with an intraperitoneal injection of 2 mL of a 2% potato starch suspension. The present test was conducted at 37° C. under an atmosphere having a CO2 concentration of 5%. Each of the compounds to be used in the test was dissolved in DMSO to give a test solution having a predetermined concentration. […] After 24 hours, 100 μL of a suspension containing amastigotes (1.2×10^6/mL) was further added to each well, giving a suspension having a amastigotes/macrophages ratio of 3/1. The amastigotes were prepared in the same manner as above, and suspended in the RPMI/FBS medium. After 24 hours, the medium containing free amastigotes was removed, the cells were washed once with medium, and fresh media containing the test compound at serial dilutions (four 3-fold dilutions for each compound) were added to the wells. […] The IC50 values were determined based on the number of infected macrophages.

[6] = Leishmania donovani, 72 h, pH 5.4, read-out: 50% Proliferation Inhibitory Concentration IC50 L. Don, amastigotes, 72 hours incubation, pH 5.4, Alamar Blue
[7] = Rattus norvegicus, L6, 72 h, read-out: 50% Proliferation Inhibitory Concentration IC50 L-6 Cells, rat L6 cells, 72 hours incubation, Alamar Blue

In the case of `CCN1CCS/C1=C\C=c1/s/c(=C\c2sc3c4ccccc4ccc3[n+]2CCO)n(CC)c1=O` [Compound Z], the “Toxic effect against macrophages” value [1] is reported as “macrophages were killed by strong toxic effects; also recorded: Could not be tested as the macrophages died”.
For `CCn1c(=O)/c(=C/C=C2\Sc3ccccc3N2C)s/c1=C\c1sc2ccc(F)cc2[n+]1C.[Cl-]` [Compound A], the “Selective Toxicity Coefficient” value [2] was >15,000, the melting point was 274.5 to 275.6 °C and the “Infection Inhibition Rate” value ([3]; intravenous injection 0.20 mg/kg/day × 5 days) was 16.1%. For the same compound, the “Infection Inhibition Rate” value ([3]; intravenous injection 1.30 mg/kg/day × 5 days) was 94.9%, the “Infection Inhibition Rate” value ([3]; intravenous injection 4.10 mg/kg/day × 5 days) was 97.1% and the “Toxicity toward normal cells” value ([4]; rat L6 cells) was “only a weak toxicity toward normal cells”.
Compound `CCn1c(=O)/c(=C/C=C2\Sc3ccccc3N2C)s/c1=C\c1sc2ccc(F)cc2[n+]1C` (as salt: maleate) [Compound C, 2-((3-ethyl-5-(2-(3-methylbenzo[d]thiazol-2(3H)-ylidene)ethylidene)-4-oxothiazolidin-2-ylidene)methyl)-5-fluoro-3-methylbenzo[d]thiazol-3-ium maleate] has a melting point of 260.1 to 260.8 °C.
For `CCn1c(=O)/c(=C/C=C2\Sc3ccccc3N2C)s/c1=C\c1sc2ccc(F)cc2[n+]1C` [Compound D, 2-((3-ethyl-5-(2-(3-methylbenzo[d]thiazol-2(3H)-ylidene)ethylidene)-4-oxothiazolidin-2-ylidene)methyl)-5-fluoro-3-methylbenzo[d]thiazol-3-ium methanesulfonate], the “Selective Toxicity Coefficient” value ([2]; methanesulfonate) was 4,220, the IC50 ([2]; read-out: 50% Proliferation Inhibitory Concentration IC50 L. Don, amastigotes, 72 hours incubation, pH 5.4, Alamar Blue, methanesulfonate) was 20 nM and the IC50 ([4]; read-out: 50% Proliferation Inhibitory Concentration IC50 L-6 Cells, rat L6 cells, 72 hours incubation, Alamar Blue, methanesulfonate) was 84500 nM.
`CCn1c(=O)/c(=C/C=C2\Sc3ccccc3N2C)s/c1=C\c1sc2ccc(F)cc2[n+]1C.[Cl-]` [Compound A, 2-((3-ethyl-5-(2-(3-methylbenzo[d]thiazole-2(3H)-ylidene)ethylidene)-4-oxothiazolidine-2-ylidene)methyl-5-fluoro-3-methylbenzo[d]thiazole-3-ium chloride] gave an IC50 ([2]; Leishmania donovani, amastigotes, 72 hours incubation, pH 5.4, Alamar Blue, read-out: 50% Proliferation Inhibitory Concentration IC50 L. Don) of 11 nM, an IC50 ([5]; Leishmania, Macrophage, 96 h) of 353 nM and an IC50 ([4]; rat L6 cells, 72 hours incubation, Alamar Blue, read-out: 50% Proliferation Inhibitory Concentration IC50 L-6 Cells) of over 173000 nM.
With `CCn1c(=O)/c(=C/C=C2\Sc3ccccc3N2C)s/c1=C\c1sc2ccc(F)cc2[n+]1C` [Compound C, 2-((3-ethyl-5-(2-(3-methylbenzo[d]thiazol-2(3H)-ylidene)ethylidene)-4-oxothiazolidin-2-ylidene)methyl)-5-fluoro-3-methylbenzo[d]thiazol-3-ium maleate] the “Selective Toxicity Coefficient” value [2] was 2,870, the IC50 [2, 6] was 25 nM and the IC50 [4, 7] was 71700 nM. For the same compound, the “Toxicity toward normal cells” value ([4]; rat L6 cells) was “only a weak toxicity toward normal cells”.
With `CCn1c(=O)/c(=C/C=C2\Sc3ccccc3N2C)s/c1=C\c1sc2ccccc2[n+]1C` [Compound X, reference compound] the “Selective Toxicity Coefficient” value [2] was 2,400, the IC50 [2, 6] was 52 nM and the “Toxic effect against macrophages” value [1] was “Could not be tested as the macrophages died”. It also gave an IC50 [4, 7] of 125000 nM.
Compound `CCCCCCCCCCCCCCCCOP(=O)([O-])OCC[N+](C)(C)C` [Miltefosine, miltefosine, reference compound] has an IC50 ([2]; amastigotes, 72 hours incubation, pH 5.4, Alamar Blue, read-out: 50% Proliferation Inhibitory Concentration IC50 L. Don) of 430 nM and an IC50 [5] of 811 nM.
For `CCN1/C(=C/C=c2\s/c(=C\c3sc4c5ccccc5ccc4[n+]3CC)n(CC)c2=O)Sc2ccc3ccccc3c21` [Compound Y], the “Toxic effect against macrophages” value [1] was “macrophages were killed by strong toxic effects; also recorded: Could not be tested as the macrophages died”.
